Data reported in US20060094003A1, “Acetylcholine-dependent current as a novel ionic target for atrial fibrillation” (priority 2004, published 2006).
“And” between values parts separate entries of the source, which are not always exact repeats. Equal values may be shown once.

What was measured:
IKH = format: cell-based, canine
Procedure: Adult mongrel dogs of either sex (weighing about 20-35 kg) were anaesthetized with pentobarbital (30 mg kg^−1 I.V.) and artificially ventilated with room air. Hearts and adjacent lung tissue were relatively quickly excised through a left lateral thoracotomy and immersed in oxygenated Tyrode solution (composition detailed hereinbelow) at room temperature. […] A left atrial (LA) preparation with the PVs intact was perfused via the left circumflex coronary artery, and subjected to either standard fine-tipped microelectrode recording of action potentials (APs) or cardiomyocyte isolation with collagenase-containing solutions, as previously described (Ehrlich et al. 2003). Six dogs were subjected to atrial tachycardia-induced remodeling induced by 1 week of atrial pacing at about 400 beats min^−1 after ablation of the AV node, as described in Li et al. 1999. Animal care and handling procedures followed the guidelines of the Canadian Council on Animal Care.
To isolate LA and PV cardiomyocytes, the proximal circumflex artery was cannulated and the distal ends of PV myocardial sleeves (approximately 1-1.5 cm from the PV-LA junction) were marked with silk thread prior to subsequent enzyme perfusion with collagenase (100 U ml^−1, Worthington, type II), in order to facilitate localization of PV sleeves after enzymatic digestion. […] All comparisons were based on PV and LA cardiomyocytes isolated from each dog on each experimental day. After isolation, cells were stored at 4° C. and studied on the same day. For standard microelectrode experiments, intact tissue preparations including the LA and adjacent PVs were mounted in a chamber and perfused via the circumflex artery with oxygenated Krebs solution at 36±0.5° C. (see for example Kneller et al. 2002).
Currents were recorded with the whole-cell patch-clamp technique at 36±0.5° C., as described in Yue et al. 1996. All junction potentials were zeroed prior to formation of gigaohm seals. […] Capacitance was assessed using 5 mV, 10 ms hyperpolarizing steps from a holding potential (HP) of −60 mV. […] Original recordings are shown in terms of current amplitude, but mean data are presented as current density (pA pF−1) to control for variability in cell size.
Currents were recorded with hyperpolarizing and depolarizing pulses (generally 4 s duration) from a HP of −40 mV to selected test potentials (TPs). Recordings were repeated 3 times, and mean values obtained. For the determination of reversal potentials, tail currents were recorded after 1.6 s pulses to −120 mV followed by 3.2 s depolarizations to TPs between −110 and +20. All voltage protocols were delivered at 0.1 Hz.
Tyrode solution contained (mM): NaCl 136, KCl 5.4, MgCl2 1, CaCl2 1, NaH2PO4 0.33, Hepes 5 and dextrose 10 (pH 7.35 with NaOH). The cell-storage solution contained (mM): KCl 20, KH2PO4 10, dextrose 10, mannitol 40, L-glutamic acid 70, β-OH-butyric acid 10, taurine 20, EGTA 10 and 0.1% bovine serum albumin (pH 7.3, KOH). Nifedipine (5 μM) was used to suppress L-type Ca^2+ current (ICa) in all experiments. 4-Aminopyridine (4-AP, 2 mM) was added to suppress transient outward current (Ito). […] Na+ current (INa) contamination was avoided by using a HP of −40 mV for recording of hyperpolarization-induced currents and by substitution of equimolar Tris-HCl for external NaCl for tail-current recordings.

AT-remodeled canine LA = experiment: Action potential duration in AT-remodeled canine LA preparations; details: for effect on action potential duration (in words): AT-remodeled canine LA
Procedure: (§1) Adult dogs were divided into control and AT groups. AT dogs were initially anesthetized with diazepam (0.25 mg/kg IV), ketamine (5.0 mg/kg IV), and halothane (1% to 2%) for transvenous insertion of right ventricular (RV) and right atrial (RA) unipolar pacing leads connected to ventricular and atrial pacemakers implanted in the neck. Pacing began 24 hours after pacemaker implantation. AV block was created by radiofrequency catheter ablation and the RV demand-pacemaker was programmed to 80 bpm. The RA was then tachypaced (400 bpm) for 7-13 days.
(§2) On study days, dogs were anesthetized with pentobarbital (30 mg·kg^−1 I.V.) and artificially ventilated. Hearts and adjacent lung tissue were excised via a left thoracotomy and immersed in oxygenated Tyrode solution. For cell isolation, the proximal circumflex coronary artery was cannulated and distal ends of PV myocardial sleeves were marked with silk thread prior to enzyme perfusion with collagenase (100 U mL^−1, Worthington, type II), to facilitate identification after enzymatic digestion. PVs were well-perfused and single cardiomyocytes were isolated from all PVs. After isolation, cells were stored at 4° C. and studied within 12 hours.
(§3) For standard-microelectrode experiments and atrial-tachyarrhythmia induction, intact tissue preparations including the LA and adjacent PVs were mounted in a Plexiglas chamber and perfused via the left circumflex coronary artery with oxygenated Kreb's solution at 36±0.5° C. Fine-tipped microelectrodes (resistance 15-20 MΩ when filled with 3-mol/L KCL) coupled to a high-input impedance amplifier were used to record Action Potentials.
Table 1 quantifies this increase in duration by presenting the time required for action potentials in 8 dogs to reach 90%, 50% and 25% repolarization. Results are averages over 24 and 23 action potentials respectively for the pre-TQ data and the post-TQ data.

[1] = system: AT-remodeled canine left atrial (LA) preparations; experiment: Atrial tachyarrhythmia induction in AT-remodeled coronary-perfused LA preparations in vitro
Procedure: Briefly, dogs were subjected to 7-13 days of AT at about 400 beats per minute (bpm). LA preparations were then coronary-perfused and studied intact in vitro or subjected to cardiomyocyte isolation. IKH was studied with patch clamp.
as §1, §2, §3
For atrial tachyarrhythmia induction, single S2-extrastimuli following 15 S1-stimuli at basic cycle lengths (CLs) of 150-400 ms with a 5-second pause to observe the response were used. All stimuli were twice-threshold, 2-ms pulses.

Q: With tertiapin-Q as the substance, how does the “effect on time-dependent IKH (in words)” value (IKH; 200 nM tertiapin-Q, PV cardiomyocyte) read?
A: abolished

Q: And the “effect on time-dependent current (in words)” value (IKH; 1 μM tertiapin-Q, PV cardiomyocytes)?
A: eliminated

Q: And the IC50 (IKH; at −120 mV, PV cardiomyocytes, read-out: IC50 for time-dependent IKH)?
A: 10 nM and ~10 nM

Q: And the mean end-pulse current (IKH; at −120 mV, after 200 nM tertiapin-Q (before −2.84±0.89))?
A: 0.09±0.01 pA pF^−1

Q: What about the APD25 (AT-remodeled canine LA; 2 Hz, AT-remodeled preparations, post-TQ, pre-TQ 15.9 ± 1.7) of the same substance?
A: 39.0 ± 2.5 ms

Q: What about the APD50 (AT-remodeled canine LA; 2 Hz, AT-remodeled preparations, post-TQ, pre-TQ 44.4 ± 2.3) of the same substance?
A: 87.4 ± 2.7 ms

Q: What about the APD90 (AT-remodeled canine LA; 2 Hz, AT-remodeled preparations, post-TQ, pre-TQ 100.1 ± 2.6) of the same substance?
A: 162.2 ± 4.2 ms

Q: What about the “effect on action potential duration (in words)” value (AT-remodeled canine LA) of the same substance?
A: greatly increases

Q: What about the “effect on action potential duration (in words)” value (AT-remodeled canine LA; listed as TQ) of the same substance?
A: prominently increased

Q: And the tachyarrhythmia cycle length ([1]; 100 nM TQ, without TQ 108±0.3 ms)?
A: 179 ± 0.8 ms

Q: What about the mean tachyarrhythmia duration ([1]; 100 nM TQ, without TQ 11602±604 ms) of the same substance?
A: 520 ± 6 ms

Q: And the “time to termination of arrhythmia after TQ administration” value ([1]; 2 cases of tachyarrhythmia lasting uninterrupted for more than 20 minutes)?
A: ≤ 4 min
